In publication PMC6468270, “Recognition of ASF1 by Using Hydrocarbon‐Constrained Peptides” (Chembiochem, 2019):
Several values for one entry are separate records, joined by “and”; a condition that tells them apart may be missing. Identical values can stand only once. Like-named read-outs stand apart in the source and are kept apart here. Starred links: 1 amine or outer side, 2 acyl side, 3 side chain; linkers in the order of their positions; H or OH if unused. Positions of bridges follow the written chain, without caps; N, C: chain ends. Non-standard residues stand in square brackets, D forms with d. Residues, ends and D or L forms follow the SMILES beside them. Nle(6-ylidene) = O=C([C@H](CCCC=[*:3])N[*:1])[*:2]

Legend:
proteinase K [1] = assay: Proteolysis assay with proteinase K; format: in vitro ADME; conditions: Tritirachium album (Parengyodontium album); fitted half-life; 50 mM Tris, pH 8, 100 mM NaCl, room temperature, 50 M peptide, 0.1 g/ml proteinase K (µ lost in print); LC-ESI-MS, intact peptide relative to t=0, exponential decay fit; read-out: Proteinase K t 1/2
Procedure: (§1) The proteolytic stability of the peptides was also investigated by using trypsin and proteinase K. The unconstrained H3_118–135 was cleaved within 14 minutes by both proteases (Figure 4, Table 2 and the Supporting Information), whereas the constrained peptides had increased stability depending on the position of the constraint. […]
(§2) The experiment wells contained aqueous buffer (50 mM Tris, pH 8, 100 mM NaCl, 170 µL) to which peptide solution (10 µL, 1 mM in H2O) and enyzme solution (20 µL 0.5 µg/ml trypsine or 20 µL 1 µg/ml proteinase K) was added. Final concentrations in the experiment wells were 50 µM peptide, 0.05 µg/ml trypsine or 0.1 µg/ml proteinase K. A control experiment was started at the same time without the enzymes. 10 µL aliqouts of the reaction were quenched at different time-points using 90 µL 2% TFA solution. Samples were measured using LC-ESI-MS on a Bruker Maxis impact mass spectrometer equipped with a Thermo Ultimate 3000 UPLC. All samples were run on an Acquity BEH C4 column using a gradient of 1-90% B (A: H2O + 0.1 % formic acid, B: ACN + 0.1 % formic acid) over 4 minutes.
(§3) Intact peptide content was determined relative to the t=0 time-point based on HPLC peak areas. Curves were fitted using an exponential decay function in Origin Pro 9.

[2] = Circular dichroism (CD), % helicity; format: physicochemical; conditions: 100 μM peptide in 40 mM sodium phosphate, pH 7.5, 293 K, scans in duplicate
Procedure: The helical character of all three peptides was investigated by using circular dichroism (CD) in both 40 mM phosphate buffer and trifluoroethanol (TFE). […] (Figure 2).
Circular Dichroism was performed on an Applied Photophysics ChiraScan Apparatus and Software.
For each scan, the following parameters were used: 180-260 nm range; point time 1 s; 1 nm per point; step = 1; bandwidth 4.3 nm; path length 1 mm; temperature 20 °C. Scans were done in duplicate.
Samples were dissolved in 4 0 mM sodium phosphate b uffer pH 7.50 at concentration of 100 μM.
Where θ = circular dichroism at a given wavelength, c = molar concentration, l = path length in cm, R = number of residues in the peptide sequence.
Figure ESI 1. Conformational analyses of histone H3 variant peptides by circular dichroism (CD) analyses (peptide concentration =100 μM, 40 mM sodium phosphate (or 40 mM sodium phosphate/ […]
(§4) Expression and Purification of ASF-1
(§5) Recombinant human ASF1 (ASF1A(1-156)) was purified as already described from expression in E. coli of a (His)6–GST –Tev site–Asf1 fusion protein using the pETM30 plasmid. Briefly, soluble (His)6-tagged GST fusion protein was purified on reduced glutathione (GSH) agarose beads (Sigma).
(§6) After cleavage with recombinant (His)6-TEV protease at room temperature overnight, the (His)6-GST tag and the protease were trapped in a Ni-NTA agarose column (Qiagen). The flow-through fraction containing ASF1 proteins was further purified by anion exchange chromatography using a Resource Q 6mL column (GE Healthcare). ASF1 was then concentrated using an Amicon device (Millipore) and the buffer was replaced with a 50mM Tris-HCl (pH7.5). Unlabled ASF1 used for ITC experiments was purified from pellets of bacteria grown in LB medium, and uniformly labelled ASF1 from bacteria gown in M9 minimal media supplemented with (15NH4)Cl (Eurisotop,0.5 g.l−1) as the sole nitrogen source.
(§7) (1 picture or pasted object on this page, not shown here)

trypsin = assay: Proteolysis assay with trypsin; format: in vitro ADME
Procedure: as §1, §2, §3

ASF1A(1–156) [3] = biological target: T1, ASF1A(1–156) (Homo sapiens, UniProt Q9Y294); assay: Isothermal titration calorimetry (ITC) of peptide binding to ASF1; conditions: 20°C, 50mM Tris-HCl pH 7.5, protein 10µM, peptide 200µM, at least in duplicate
T1 construct: Recombinant human ASF1 (ASF1A(1-156)) was purified as already described; (His)6-GST-TEV site (N, cleaved yes); made in house; host or cells: E. coli (pETM30 plasmid)
T1 sequence (Q9Y294 1-156): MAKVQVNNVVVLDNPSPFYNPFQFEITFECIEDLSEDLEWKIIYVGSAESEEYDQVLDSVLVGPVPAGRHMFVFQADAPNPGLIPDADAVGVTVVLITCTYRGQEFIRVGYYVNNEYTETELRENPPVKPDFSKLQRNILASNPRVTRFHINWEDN
Procedure: Binding of the peptides to ASF1 was then assessed by isothermal titration calorimetry (ITC; Figure 3, Table 1). […] Strikingly, the binding potency was similar in all three cases, ΔG=−7.3 to −8.0 kcal M ^−1, despite H3_118–135(St123–127)GCA adopting a more helical conformation and therefore presumably being more pre‐organised towards ASF1 recognition. Analyses of the thermodynamic determinants of binding reveal enthalpy–entropy compensation. […] In contrast, for the more helical peptide, H3_118–135(St123–127)GCA, the entropy of binding (TΔS=3.1 kcal M ^−1) was favourable, consistent with the anticipated effect of pre‐organisation; however, the enthalpy of binding (ΔH=−4.2 kcal M ^−1) was less favourable than for the less helical variants. […] Such an effect might arise because the less helical peptides H3_118–135 and H3_118–135(St120–124) form enthalpically favourable backbone hydrogen bonds upon a change in conformation to the helix, whereas the more pre‐organised helix H3_118–135(St123–127)GCA neither gains new hydrogen bonds nor undergoes an entropically costly change in conformation on binding ASF1. Alternatively, differential changes in the solvation of the peptides upon binding could account for such a difference in thermodynamic signature. Either way, the results underscore a limitation in correlating conformational stability against binding potency for the unconstrained (H3_118–135) and constrained (H3_118–135(St123–127)GCA) peptides; although the helical conformation is preferred for H3_118–135(St123–127)GCA, this can be considered as arising from an increase in energy (or destabilisation) of nonhelical conformations for this sequence as opposed to preorganisation of the wild‐type sequence. […]
as §4, §5, §6, §7
Isothermal Titration Calorimetry
All IsoThermal Calorimetry (ITC) experiments were performed in a VP-ITC titration calorimeter (Microcal/Malvern) at 20°C, in a 50mM Tris-HCl pH 7.5 buffer. Protein and peptides concentrations were set to values 10µM and 200µM, respectively. Protein and peptide samples were prepared in the same buffer and degassed (ThermoVac, Malvern). After equilibrating the cell at […], the rotating syringe (310rpm) injected at intervals of 280s, 6µL aliquots of peptide solution into the Asf1 previously introduced in the sample cell until saturation was observed. Raw ITC data were processed with the Origin 7.0 Software (OriginLab, Malvern) using the One-Set of Sites fitting model. All ITC experiments were performed at least in duplicate. […]
as §3

ASF1A(1–156) [4] = biological target: T1, ASF1A(1–156); assay: NMR chemical-shift-perturbation study with 15N labelled ASF1A(1–156); format: binding; conditions: uniformly 15N labelled ASF1A(1–156), mapped on PDB 2IIJ
Procedure: In order to confirm the binding mode of the constrained peptides with ASF1, chemical‐shift‐perturbation studies were carried out for all three peptides (Figure S2) by using uniformly ^15N labelled ASF1A(1–156). The chemical‐shift variation was mapped onto the protein structure of ASF1A–H3 (PDB ID: 2IIJ). All three peptides induced the highest values of chemical‐shift variation and a “slow‐exchange” regime for the ASF1 residues defining the already well characterised H3 binding site (V45–E51, V90–I97, R108–Y111, V146–T147),37, 45 thus confirming the preservation of the specific binding mode for the constrained peptides.

proteinase K [5] = biological target: proteinase K (Parengyodontium album, UniProt P06873); assay: Proteolysis assay with proteinase K; format: in vitro ADME; conditions: 50 mM Tris, pH 8, 100 mM NaCl, room temperature, LC-ESI-MS
Sequence of proteinase K (Parengyodontium album, UniProt P06873) (P06873 106-384, species assumed): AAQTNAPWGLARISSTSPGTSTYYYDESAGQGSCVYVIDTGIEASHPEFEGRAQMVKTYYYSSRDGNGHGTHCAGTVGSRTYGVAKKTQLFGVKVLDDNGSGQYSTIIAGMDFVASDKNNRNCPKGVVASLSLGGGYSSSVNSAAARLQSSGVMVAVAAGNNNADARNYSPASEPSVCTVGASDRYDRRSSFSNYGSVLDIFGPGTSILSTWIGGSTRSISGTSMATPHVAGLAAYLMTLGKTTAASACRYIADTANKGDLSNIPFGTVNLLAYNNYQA
Procedure: as §1, §2, §3

ASF1A(1–156) [6] = biological target: T2, ASF1A(1–156) (UniProt Q9Y294 1-156, uniformly 15N labelled (in the chemical-shift-perturbation study only)); assay: ITC; H3 peptides with ASF1A(1–156); exothermic, fitted to a 1:1 binding isotherm; conditions not shown; conditions: both partners purified
T2 construct: ASF1A (anti-silencing function 1A), histone chaperone, conserved N-terminal domain, residues 1-156; The same construct limits as in PDB 2IIJ; also called anti-silencing function 1
T2 sequence (Q9Y294 1-156): as the sequence (Q9Y294 1-156) above

[7] = trypsin, fitted half-life, 50 mM Tris, pH 8, 100 mM NaCl, room temperature, 50 M peptide, 0.05 g/ml trypsine (µ lost in print), LC-ESI-MS, intact peptide relative to t=0, exponential decay fit, read-out: Trypsin t 1/2

Molecule	half-life at 50 µM (proteinase K [1])	% helicity [2]	half-life at 50 µM (trypsin; [7])	ΔG (ASF1A(1–156) [3])	chemical-shift variation at the B domain binding site (S59–F72) of ASF1 (nonspecific binding) (ASF1A(1–156) [4])	TΔS (ASF1A(1–156) [3])	ΔH (ASF1A(1–156) [3])	time within which peptide was cleaved by proteinase K (proteinase K [5])	half-life at 50 µM (trypsin; isolated enzyme trypsin, pH 8)	Kd (ASF1A(1–156) [6])	dH (ASF1A(1–156) [6])	stoichiometry N (ASF1A(1–156) [6])
CC[C@H](C)[C@H](NC(=O)[C@H](CCCNC(=N)N)NC(=O)[C@H](CCCNC(=N)N)NC(=O)[C@H](C)NC(=O)[C@H](CC(C)C)NC(=O)[C@H](CCC(N)=O)NC(=O)[C@@H]1CCCC=CCCC[C@H](NC(=O)[C@H](C)NC(=O)CNC(C)=O)C(=O)NCC(=O)N[C@@H](CCCCN)C(=O)N[C@@H](CC(=O)O)C(=O)N1)C(=O)N[C@@H](CCCNC(=N)N)C(=O)NCC(=O)N[C@@H](CCC(=O)O)C(=O)N[C@@H](CCCNC(=N)N)C(=O)N[C@@H](C)C(N)=O [H3_118–135(St120–124)] (Ac-GA[Nle(6-ylidene)]GKD[Nle(6-ylidene)]QLARRIRGERA-NH2; staple 3-7)	65.8 ± 15.7 min	20%	14.9 ± 2.5 min	−8.3±0.07 kcal M ^−1	exhibited chemical‐shift variations							
CC[C@H](C)[C@H](NC(=O)[C@H](CCCNC(=N)N)NC(=O)[C@H](CCCNC(=N)N)NC(=O)[C@@H]1CCCC=CCCC[C@H](NC(=O)[C@H](CCCCN)NC(=O)CNC(=O)[C@H](CCSC)NC(=O)[C@H](C)NC(=O)CNC(C)=O)C(=O)N[C@@H]([C@@H](C)CC)C(=O)N[C@@H](CCC(N)=O)C(=O)N[C@@H](CC(C)C)C(=O)N1)C(=O)N[C@@H](CCCNC(=N)N)C(=O)NCC(=O)N[C@@H](CCC(=O)O)C(=O)N[C@@H](CCCNC(=N)N)C(=O)N[C@@H](C)C(=O)NCC(=O)N[C@@H](CS)C(=O)N[C@@H](C)C(N)=O [H3_118–135(St123–127)GCA] (Ac-GAMGK[Nle(6-ylidene)]IQL[Nle(6-ylidene)]RRIRGERAGCA-NH2; staple 6-10)	23.1 ± 2.6 min	29%	40.5 ± 16.9 min	−7.3±0.05 kcal M ^−1	no chemical‐shift variation	3.1 kcal M ^−1 and 3.1±0.2 kcal M ^−1	−4.2 kcal M ^−1 and −4.2±0.08 kcal M ^−1					
Ac-GAMGKDIQLARRIRGERA-NH2 [H3_118–135]	12.2 ± 0.8 min	15%		−8.0±0.14 kcal M ^−1	exhibited chemical‐shift variations	−6.4 to −6.7 kcal M ^−1 and −6.4±0.51 kcal M ^−1	−14.4 to −15.0 kcal M ^−1 and −14.4±0.37 kcal M ^−1	≤ 14 min	13.3 ± 1.5 min			
TIMPKDIQLARRIRGERA (peptide, UniProt P68431 119-136, looked up, histone H3, C-terminal helix peptide, residues 118-135; also called histone H3(118–135); unconstrained H3_(118–135); source: synthetic peptide (solid-phase peptide synthesis)) [H3_(118–135)]										1340 ± 330 nM	-14.4 ± 0.37 kcal/M	0.94 ± 0.04
